Data as given in ChEMBL document CHEMBL3352057, “Novel fluorinated pyrrolo[1,2-a]pyrazine-2,6-dione derivatives: synthesis and anticonvulsant evaluation in animal models of epilepsy” (Bioorg Med Chem, 2014).
Active and inactive are the calls of the source. The calls are words filed in the database; no cut-off is given here.

Key:
[1] = test system: Mus musculus; experiment: Anticonvulsant activity in albino CF1 mouse assessed as protection against 32 mA current-induced seizures at 100 mg/kg, ip measured after 0.25 hr; format: functional, organism-based; design: dose 100 mg/kg
[2] = test system: Mus musculus; experiment: Anticonvulsant activity in albino CF1 mouse assessed as protection against subcutaneous metrazol-induced seizures at 100 mg/kg, ip measured after 0.5 hr; format: functional, organism-based; design: dose 100 mg/kg
[3] = test system: Mus musculus; experiment: Anticonvulsant activity in albino CF1 mouse assessed as protection against maximal electroshock-induced seizures at 100 mg/kg, ip measured after 0.25 hr; format: functional, organism-based; design: dose 100 mg/kg
[4] = test system: Mus musculus; experiment: Anticonvulsant activity in albino CF1 mouse assessed as protection against subcutaneous metrazol-induced seizures at 100 mg/kg, ip measured after 4 hrs; format: functional, organism-based; design: dose 100 mg/kg
[5] = test system: Rattus norvegicus; experiment: Neurotoxicity in MES Sprague-Dawley rat model at 30 mg/kg, po measured after 1 hr; format: toxicity, organism-based; design: dose 30 mg/kg, route oral; conditions: in vivo
[6] = test system: Mus musculus; experiment: Neurotoxicity in albino CF1 mouse at 100 mg/kg, ip measured after 0.25 hr; format: toxicity, organism-based; design: dose 100 mg/kg, route intraperitoneal; conditions: in vivo
[7] = test system: Mus musculus; experiment: Neurotoxicity in 32 mA current-induced seizure albino CF1 mouse model at 100 mg/kg, ip measured after 1 hr; format: toxicity, organism-based; design: dose 100 mg/kg, route intraperitoneal; conditions: in vivo
[8] = test system: Rattus norvegicus; experiment: Neurotoxicity in MES Sprague-Dawley rat model at 30 mg/kg, po measured after 0.5 hr; format: toxicity, organism-based; design: dose 30 mg/kg, route oral; conditions: in vivo
[9] = test system: Mus musculus; experiment: Anticonvulsant activity in albino CF1 mouse assessed as protection against 32 mA current-induced seizures at 100 mg/kg, ip measured after 0.5 hr; format: functional, organism-based; design: dose 100 mg/kg
[10] = test system: Rattus norvegicus; experiment: Anticonvulsant activity in Sprague-Dawley rat assessed as protection against maximal electroshock-induced seizures at 30 mg/kg, po measured after 1 hr; format: functional, organism-based; design: dose 30 mg/kg
[11] = test system: Mus musculus; experiment: Neurotoxicity in 32 mA current-induced seizure albino CF1 mouse model at 100 mg/kg, ip measured after 0.5 hr; format: toxicity, organism-based; design: dose 100 mg/kg, route intraperitoneal; conditions: in vivo
[12] = test system: Mus musculus; experiment: Anticonvulsant activity in albino CF1 mouse assessed as protection against 32 mA current-induced seizures at 100 mg/kg, ip measured after 4 hrs; format: functional, organism-based; design: dose 100 mg/kg
[13] = test system: Mus musculus; experiment: Neurotoxicity in 32 mA current-induced seizure albino CF1 mouse model at 100 mg/kg, ip measured after 0.25 hr; format: toxicity, organism-based; design: dose 100 mg/kg, route intraperitoneal; conditions: in vivo
[14] = test system: Mus musculus; experiment: Neurotoxicity in 32 mA current-induced seizure albino CF1 mouse model at 100 mg/kg, ip measured after 4 hrs; format: toxicity, organism-based; design: dose 100 mg/kg, route intraperitoneal; conditions: in vivo
[15] = test system: Mus musculus; experiment: Anticonvulsant activity in albino CF1 mouse assessed as protection against maximal electroshock-induced seizures at 100 mg/kg, ip measured after 4 hrs; format: functional, organism-based; design: dose 100 mg/kg
[16] = test system: Mus musculus; experiment: Neurotoxicity in albino CF1 mouse at 100 mg/kg, ip measured after 4 hrs; format: toxicity, organism-based; design: dose 100 mg/kg, route intraperitoneal; conditions: in vivo
[17] = test system: Rattus norvegicus; experiment: Neurotoxicity in MES Sprague-Dawley rat model at 30 mg/kg, po measured after 2 hrs; format: toxicity, organism-based; design: dose 30 mg/kg, route oral; conditions: in vivo
[18] = test system: Mus musculus; experiment: Anticonvulsant activity in albino CF1 mouse assessed as protection against subcutaneous metrazol-induced seizures at 100 mg/kg, ip measured after 1 hr; format: functional, organism-based; design: dose 100 mg/kg
[19] = test system: Mus musculus; experiment: Neurotoxicity in albino CF1 mouse at 100 mg/kg, ip measured after 0.5 hr; format: toxicity, organism-based; design: dose 100 mg/kg, route intraperitoneal; conditions: in vivo
[20] = test system: Rattus norvegicus; experiment: Neurotoxicity in MES Sprague-Dawley rat model at 30 mg/kg, po measured after 0.25 hr; format: toxicity, organism-based; design: dose 30 mg/kg, route oral; conditions: in vivo
[21] = test system: Mus musculus; experiment: Anticonvulsant activity in albino CF1 mouse assessed as protection against subcutaneous metrazol-induced seizures at 100 mg/kg, ip measured after 0.25 hr; format: functional, organism-based; design: dose 100 mg/kg
[22] = test system: Mus musculus; experiment: Anticonvulsant activity in albino CF1 mouse assessed as protection against 32 mA current-induced seizures at 100 mg/kg, ip measured after 2 hrs; format: functional, organism-based; design: dose 100 mg/kg
[23] = test system: Rattus norvegicus; experiment: Anticonvulsant activity in Sprague-Dawley rat assessed as protection against maximal electroshock-induced seizures at 30 mg/kg, po measured after 4 hrs; format: functional, organism-based; design: dose 30 mg/kg
[24] = test system: Mus musculus; experiment: Anticonvulsant activity in albino CF1 mouse assessed as protection against maximal electroshock-induced seizures at 100 mg/kg, ip measured after 0.5 hr; format: functional, organism-based; design: dose 100 mg/kg
[25] = test system: Rattus norvegicus; experiment: Anticonvulsant activity in Sprague-Dawley rat assessed as protection against maximal electroshock-induced seizures at 30 mg/kg, po measured after 0.5 hr; format: functional, organism-based; design: dose 30 mg/kg
[26] = test system: Rattus norvegicus; experiment: Anticonvulsant activity in Sprague-Dawley rat assessed as protection against maximal electroshock-induced seizures at 30 mg/kg, po measured after 2 hrs; format: functional, organism-based; design: dose 30 mg/kg
[27] = test system: Rattus norvegicus; experiment: Anticonvulsant activity in Sprague-Dawley rat assessed as protection against maximal electroshock-induced seizures at 30 mg/kg, po measured after 0.25 hr; format: functional, organism-based; design: dose 30 mg/kg
[28] = test system: Mus musculus; experiment: Anticonvulsant activity in albino CF1 mouse assessed as protection against maximal electroshock-induced seizures at 100 mg/kg, ip measured after 1 hr; format: functional, organism-based; design: dose 100 mg/kg
[29] = test system: Mus musculus; experiment: Neurotoxicity in 32 mA current-induced seizure albino CF1 mouse model at 100 mg/kg, ip measured after 2 hrs; format: toxicity, organism-based; design: dose 100 mg/kg, route intraperitoneal; conditions: in vivo
[30] = test system: Mus musculus; experiment: Neurotoxicity in albino CF1 mouse at 100 mg/kg, ip measured after 1 hr; format: toxicity, organism-based; design: dose 100 mg/kg, route intraperitoneal; conditions: in vivo
[31] = test system: Mus musculus; experiment: Anticonvulsant activity in albino CF1 mouse assessed as protection against 32 mA current-induced seizures at 100 mg/kg, ip measured after 1 hr; format: functional, organism-based; design: dose 100 mg/kg
[32] = test system: Rattus norvegicus; experiment: Neurotoxicity in MES Sprague-Dawley rat model at 30 mg/kg, po measured after 4 hrs; format: toxicity, organism-based; design: dose 30 mg/kg, route oral; conditions: in vivo
[33] = test system: Rattus norvegicus; experiment: Anticonvulsant activity in Sprague-Dawley rat assessed as protection against maximal electroshock-induced seizures at 30 mg/kg, ip measured after 4 hrs; format: functional, organism-based; design: dose 30 mg/kg
[34] = test system: Rattus norvegicus; experiment: Anticonvulsant activity in Sprague-Dawley rat assessed as protection against maximal electroshock-induced seizures at 30 mg/kg, ip measured after 0.25 hr; format: functional, organism-based; design: dose 30 mg/kg
[35] = test system: Rattus norvegicus; experiment: Neurotoxicity in MES Sprague-Dawley rat model at 30 mg/kg, ip measured after 0.5 hr; format: toxicity, organism-based; design: dose 30 mg/kg, route intraperitoneal; conditions: in vivo
[36] = test system: Rattus norvegicus; experiment: Neurotoxicity in MES Sprague-Dawley rat model at 30 mg/kg, ip measured after 0.25 hr; format: toxicity, organism-based; design: dose 30 mg/kg, route intraperitoneal; conditions: in vivo
[37] = test system: Rattus norvegicus; experiment: Anticonvulsant activity in Sprague-Dawley rat assessed as protection against maximal electroshock-induced seizures at 30 mg/kg, ip measured after 2 hrs; format: functional, organism-based; design: dose 30 mg/kg
[38] = test system: Rattus norvegicus; experiment: Anticonvulsant activity in Sprague-Dawley rat assessed as protection against maximal electroshock-induced seizures at 30 mg/kg, ip measured after 1 hr; format: functional, organism-based; design: dose 30 mg/kg
[39] = test system: Rattus norvegicus; experiment: Neurotoxicity in MES Sprague-Dawley rat model at 30 mg/kg, ip measured after 2 hrs; format: toxicity, organism-based; design: dose 30 mg/kg, route intraperitoneal; conditions: in vivo
[40] = test system: Rattus norvegicus; experiment: Anticonvulsant activity in Sprague-Dawley rat assessed as protection against maximal electroshock-induced seizures at 30 mg/kg, ip measured after 0.5 hr; format: functional, organism-based; design: dose 30 mg/kg
[41] = test system: Rattus norvegicus; experiment: Neurotoxicity in MES Sprague-Dawley rat model at 30 mg/kg, ip measured after 1 hr; format: toxicity, organism-based; design: dose 30 mg/kg, route intraperitoneal; conditions: in vivo
[42] = test system: Rattus norvegicus; experiment: Neurotoxicity in MES Sprague-Dawley rat model at 30 mg/kg, ip measured after 4 hrs; format: toxicity, organism-based; design: dose 30 mg/kg, route intraperitoneal; conditions: in vivo
[43] = test system: Rattus norvegicus; experiment: Anticonvulsant activity in ip dosed Sprague-Dawley rat assessed as protection against subcutaneous metrazol-induced seizures; format: functional
[44] = Protective index, ratio of TD50 for neurotoxicity in ip dosed Sprague-Dawley rat to ED50 for anticonvulsant activity in ip dosed MES Sprague-Dawley rat model; format: toxicity, organism-based; conditions: in vivo, read-out: Ratio TD50/ED50
[45] = Neurotoxicity in ip dosed Sprague-Dawley rat; format: toxicity, organism-based; conditions: in vivo
[46] = test system: Rattus norvegicus; experiment: Anticonvulsant activity in ip dosed Sprague-Dawley rat assessed as protection against maximal electroshock-induced seizures measured as time to peak effect; format: functional
[47] = test system: Rattus norvegicus; experiment: Anticonvulsant activity in ip dosed Sprague-Dawley rat assessed as protection against maximal electroshock-induced seizures; format: functional
[48] = test system: Mus musculus; experiment: Anticonvulsant activity in ip dosed albino CF1 mouse assessed as protection against maximal electroshock-induced seizures measured as time to peak effect; format: functional
[49] = Neurotoxicity in ip dosed albino CF1 mouse; format: toxicity, organism-based; conditions: in vivo
[50] = test system: Mus musculus; experiment: Anticonvulsant activity in ip dosed albino CF1 mouse assessed as protection against subcutaneous metrazol-induced seizures; format: functional
[51] = test system: Mus musculus; experiment: Anticonvulsant activity in ip dosed albino CF1 mouse assessed as protection against maximal electroshock-induced seizures; format: functional

Compound	Activity [1]	Activity [2]	Activity [3]	Activity [4]	Activity [6]	Activity [7]	Activity [9]	Activity [11]	Activity [12]	Activity [13]	Activity [14]	Activity [15]	Activity [16]	Activity [18]	Activity [19]	Activity [21]	Activity [22]	Activity [24]	Activity [28]	Activity [29]	other results
O=C1NC(=O)[C@@H]2CCCN2[C@H]1c1cccc(F)c1	Active	Active	Active	inactive	Non-toxic	Non-toxic	Active	Non-toxic	inactive	Non-toxic	Non-toxic	inactive	Non-toxic	inactive	Non-toxic	Active	inactive	Active	inactive	Non-toxic	Activity [5]: Non-toxic; Activity [8]: Non-toxic; Activity [10]: inactive; Activity [17]: Non-toxic; Activity [20]: Non-toxic; Activity [23]: inactive; Activity [25]: inactive; Activity [26]: inactive; Activity [27]: inactive; Activity [30]: Non-toxic; Activity [31]: inactive; Activity [32]: Non-toxic
O=C1NC(=O)[C@@H]2CCCCN2[C@H]1c1cccc(C(F)(F)F)c1	Active	inactive	inactive	inactive	Non-toxic	Non-toxic	Active	Non-toxic	inactive	Non-toxic	Non-toxic	inactive	Non-toxic	inactive	Non-toxic	inactive	inactive	inactive	inactive	Non-toxic	Activity [33]: inactive; Activity [34]: inactive; Activity [35]: Non-toxic; Activity [36]: Non-toxic; Activity [37]: inactive; Activity [38]: inactive; Activity [39]: Non-toxic; Activity [40]: inactive; Activity [30]: Non-toxic; Activity [41]: Non-toxic; Activity [42]: Non-toxic; Activity [31]: inactive
O=C1NC(=O)C(c2ccccc2)(c2ccccc2)N1 [PHENYTOIN]	–	–	–	–	–	–	–	–	–	–	–	–	–	–	–	–	–	–	–	–	ED50 [43]: > 430 µmol/kg; selectivity ratio [44]: 6.4; TD50 [45]: 66 µmol/kg; Time [46]: 0.25 h; ED50 [47]: 10 µmol/kg
CCC1(c2ccccc2)C(=O)NC(=O)NC1=O [PHENOBARBITAL]	–	–	–	–	–	–	–	–	–	–	–	–	–	–	–	–	–	–	–	–	Time [48]: 1 h; TD50 [49]: 297 µmol/kg; ED50 [50]: 57 µmol/kg; ED50 [51]: 94 µmol/kg
